Test results: the supplement of paper PMC6045584
± gives the standard deviation of the averaged measurements.

Key:
[1] = compound: C[C@@H](Oc1cc(-c2cnn(C3CCNCC3)c2)cnc1N)c1c(Cl)ccc(F)c1Cl; assay: surviving fraction relative to DMSO-only wells; higher = less growth inhibition; conditions: exposure time: 5 days
In short: (§1)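 Tumour cell lines in log phase were plated in 384-well plates at 250–500 cells per well, then, after 24 hours, exposed continuously for five days to inhibitors at 0.5, 1, 5, 10, 50, 100, 500 and 1000 nM. Viability came from CellTiter-Glo luminescence, and surviving fraction is that signal normalised to the median of DMSO-only wells. Plates were read after 10 minutes at room temperature, and each line, screened three times, was kept only when replicate Pearson r was >0.7 and median Z' was >0.3.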

[2] = compound: COc1cc2ncnc(Nc3ccc(F)c(Cl)c3)c2cc1NC(=O)/C=C/CN1CCCCC1; assay: as above; conditions: exposure time: 5 days
In short: as §1

Test System	surviving fraction ([1]; 0.5 nM)	surviving fraction ([1]; 1 nM)	surviving fraction ([1]; 5 nM)	surviving fraction ([1]; 10 nM)	surviving fraction ([1]; 50 nM)	surviving fraction ([1]; 100 nM)	surviving fraction ([1]; 500 nM)	surviving fraction ([1]; 1000 nM)	surviving fraction ([2]; 0.5 nM)	surviving fraction ([2]; 1 nM)	surviving fraction ([2]; 5 nM)	surviving fraction ([2]; 10 nM)	surviving fraction ([2]; 50 nM)	surviving fraction ([2]; 100 nM)	surviving fraction ([2]; 500 nM)	surviving fraction ([2]; 1000 nM)
YAMATO SYNOVIAL	0.796 ± 0.0095	0.763 ± 0.069	0.79 ± 0.015	0.724 ± 0.12	0.425 ± 0.015	0.309 ± 0.014	0.279 ± 0.014	0.333 ± 0.024	1.23 ± 0.053	1.29 ± 0.18	1.3 ± 0.02	1.45 ± 0.17	1.31 ± 0.095	1.39 ± 0.068	1.31 ± 0.16	1.27 ± 0.077
ZR751 BREAST	0.874 ± 0.087	0.924 ± 0.052	0.873 ± 0.082	0.797 ± 0.046	0.82 ± 0.14	0.967 ± 0.052	0.727 ± 0.074	0.699 ± 0.077	1.07 ± 0.11	0.919 ± 0.043	0.791 ± 0.018	0.859 ± 0.076	0.762 ± 0.095	0.768 ± 0.04	0.625 ± 0.056	0.415 ± 0.087
